# Reference: US20240417743A1, “METHODS FOR IMPROVING GENOME ENGINEERING AND REGENERATION IN PLANT” (KWS SAAT SE & Co. KGaA, priority 2018, published 2024)
# Tested on: maize WUS2 promoter
# Experiment: Maize WUS2 promoter tDT report construct co-bombardment
# Format: cell-based
# From the text: Homeobox domain transcriptional factor WUSCHEL (WUS) plays an important role in establishing and maintaining of shoot meristem. To identify boost factors that promote endogenous WUS2 expression, the maize WUSCHEL 2 promoter report construct (pAMK-ZmWUS2-tDT-noT) (SEQ ID NO: 43; FIG. 13) was used to illustrate maize WUS2 promoter activity. The maize WUS2 promoter (pZmWUS2) drove expression of the tDT report gene in this report construct (FIG. 13). The WUS2 promoter report construct was co-bombarded with boost factors individually in maize immature embryos and leaf segments.
# Fresh leaf segments of 1-2 cm in length were prepared from the in vitro-cultured maize A188 seedling of 10-14 days old, and placed on the Osmotic medium with abaxial side up for 4 hours. For co-bombardment, two plasmids (100 ng of ZmWUS2 promoter report (FIG. 13) and 100 ng of boost construct, e.g. TaRKD4 (FIG. 5)) were premixed and coated onto 100 μg of gold particles size 0.4 μm. Immature embryo preparation, bombardment, and post-bombardment culturing were carried out as described in Example 1 and Example 2. Red fluorescence showing tDT expression was monitored using a fluorescent microscope started at 16 hours after bombardment.
# [1] = A188 leaf segments, after bombardment
substance,measurement,setting,value
"wheat RKD4: wheat RKD4 boost gene, expression construct pABM-BdEF1-TaRKD4 (SEQ ID NO: 28)",time at which tDT signal peaked,[1],around 44 hours
same,time at which tDT signal was detected,[1],around 36 hours
same,activation of maize WUS2 genes,immature embryos and leaf segments,strongly activate
same,tDT red fluorescent signals,"immature embryos, 44 hours after bombardment, compared to WUS promoter reporter only",extremely strong red fluorescent signals
